In general, Ki refers to the dissociation constant of the complex between target and ligand, obtained from inhibition or displacement.

This is an account of results in patent US8580802B2, “Pyrrolo[2,3-D]pyrimidines as inhibitors of Janus kinases” (Vertex Pharmaceuticals Incorporated, priority 2005, dated 2013).

The target in one assay is JAK2 (Homo sapiens, UniProt O60674). Put plainly: JAK2 Inhibition Assay. It is filed as biochemical. Conditions: JAK-2 enzyme, 15 μM poly(Glu)4Tyr, 12 μM ATP. How it is done:
(§1) Compounds were screened for their ability to inhibit JAK3 using the assay shown below. Reactions were carried out in a kinase buffer containing 100 mM HEPES (pH 7.4), 1 mM DTT, 10 mM MgCl2, 25 mM NaCl, and 0.01% BSA. Substrate concentrations in the assay were 5 μM ATP (200 uCi/μmole ATP) and 1 μM poly(Glu)4Tyr. Reactions were carried out 25° C. and 1 nM JAK3.
(§2) To each well of a 96 well polycarbonate plate was added 1.5 μl of a candidate JAK3 inhibitor along with 50 μl of kinase buffer containing 2 μM poly(Glu)4Tyr and 10 μM ATP. This was then mixed and 50 μl of kinase buffer containing 2 nM JAK3 enzyme was added to start the reaction. After 20 minutes at room temperature (25° C.), the reaction was stopped with 50 μl of 20% trichloroacetic acid (TCA) that also contained 0.4 mM ATP. The entire contents of each well were then transferred to a 96 well glass fiber filter plate using a TomTek Cell Harvester. After washing, 60 μl of scintillation fluid was added and ^33P incorporation detected on a Perkin Elmer TopCount.
The assays were as described above in Example 36 except that JAK-2 enzyme was used, the final poly(Glu)4Tyr concentration was 15 μM, and final ATP concentration was 12 μM.

The next assay has as its target T1, JAK3 (Homo sapiens, UniProt P52333).
T1 sequence (P52333 1-1124): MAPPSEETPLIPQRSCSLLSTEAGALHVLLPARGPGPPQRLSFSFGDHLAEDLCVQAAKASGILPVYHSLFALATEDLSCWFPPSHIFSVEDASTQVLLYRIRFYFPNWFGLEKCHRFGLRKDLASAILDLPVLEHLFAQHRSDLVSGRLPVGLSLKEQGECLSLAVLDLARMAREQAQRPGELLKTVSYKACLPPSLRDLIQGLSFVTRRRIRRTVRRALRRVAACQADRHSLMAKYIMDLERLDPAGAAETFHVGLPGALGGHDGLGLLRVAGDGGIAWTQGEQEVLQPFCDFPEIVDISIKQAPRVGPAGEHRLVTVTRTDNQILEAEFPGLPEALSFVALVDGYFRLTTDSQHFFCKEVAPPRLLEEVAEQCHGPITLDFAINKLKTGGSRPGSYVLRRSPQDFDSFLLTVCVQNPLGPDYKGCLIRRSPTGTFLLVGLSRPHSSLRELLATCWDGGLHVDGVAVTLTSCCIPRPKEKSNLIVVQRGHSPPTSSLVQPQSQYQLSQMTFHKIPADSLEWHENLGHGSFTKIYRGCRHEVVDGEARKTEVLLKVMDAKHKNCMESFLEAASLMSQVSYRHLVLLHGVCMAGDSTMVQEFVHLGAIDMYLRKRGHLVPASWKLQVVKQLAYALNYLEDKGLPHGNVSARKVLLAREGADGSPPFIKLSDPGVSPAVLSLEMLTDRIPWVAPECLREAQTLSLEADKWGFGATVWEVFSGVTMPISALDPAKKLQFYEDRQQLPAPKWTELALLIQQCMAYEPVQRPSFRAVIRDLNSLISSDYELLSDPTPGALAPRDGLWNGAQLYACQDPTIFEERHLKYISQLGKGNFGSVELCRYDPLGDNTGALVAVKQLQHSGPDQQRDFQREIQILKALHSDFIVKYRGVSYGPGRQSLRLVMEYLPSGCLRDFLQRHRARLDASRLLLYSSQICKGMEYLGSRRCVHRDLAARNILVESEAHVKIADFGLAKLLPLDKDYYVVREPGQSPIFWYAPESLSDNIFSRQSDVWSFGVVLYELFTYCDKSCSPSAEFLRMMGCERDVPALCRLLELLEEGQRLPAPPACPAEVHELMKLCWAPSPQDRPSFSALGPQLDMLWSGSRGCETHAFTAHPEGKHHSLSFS
Nature of the assay: JAK3 Inhibition Assay. In kind it is biochemical. Conditions: 1 nM JAK3, 1 μM poly(Glu)4Tyr, 5 μM ATP, 25° C.; read-out: enzyme inhibition data (Ki) JAK3. As to the method: as §1, §2

Sequence of JAK2 (O60674 whole entry): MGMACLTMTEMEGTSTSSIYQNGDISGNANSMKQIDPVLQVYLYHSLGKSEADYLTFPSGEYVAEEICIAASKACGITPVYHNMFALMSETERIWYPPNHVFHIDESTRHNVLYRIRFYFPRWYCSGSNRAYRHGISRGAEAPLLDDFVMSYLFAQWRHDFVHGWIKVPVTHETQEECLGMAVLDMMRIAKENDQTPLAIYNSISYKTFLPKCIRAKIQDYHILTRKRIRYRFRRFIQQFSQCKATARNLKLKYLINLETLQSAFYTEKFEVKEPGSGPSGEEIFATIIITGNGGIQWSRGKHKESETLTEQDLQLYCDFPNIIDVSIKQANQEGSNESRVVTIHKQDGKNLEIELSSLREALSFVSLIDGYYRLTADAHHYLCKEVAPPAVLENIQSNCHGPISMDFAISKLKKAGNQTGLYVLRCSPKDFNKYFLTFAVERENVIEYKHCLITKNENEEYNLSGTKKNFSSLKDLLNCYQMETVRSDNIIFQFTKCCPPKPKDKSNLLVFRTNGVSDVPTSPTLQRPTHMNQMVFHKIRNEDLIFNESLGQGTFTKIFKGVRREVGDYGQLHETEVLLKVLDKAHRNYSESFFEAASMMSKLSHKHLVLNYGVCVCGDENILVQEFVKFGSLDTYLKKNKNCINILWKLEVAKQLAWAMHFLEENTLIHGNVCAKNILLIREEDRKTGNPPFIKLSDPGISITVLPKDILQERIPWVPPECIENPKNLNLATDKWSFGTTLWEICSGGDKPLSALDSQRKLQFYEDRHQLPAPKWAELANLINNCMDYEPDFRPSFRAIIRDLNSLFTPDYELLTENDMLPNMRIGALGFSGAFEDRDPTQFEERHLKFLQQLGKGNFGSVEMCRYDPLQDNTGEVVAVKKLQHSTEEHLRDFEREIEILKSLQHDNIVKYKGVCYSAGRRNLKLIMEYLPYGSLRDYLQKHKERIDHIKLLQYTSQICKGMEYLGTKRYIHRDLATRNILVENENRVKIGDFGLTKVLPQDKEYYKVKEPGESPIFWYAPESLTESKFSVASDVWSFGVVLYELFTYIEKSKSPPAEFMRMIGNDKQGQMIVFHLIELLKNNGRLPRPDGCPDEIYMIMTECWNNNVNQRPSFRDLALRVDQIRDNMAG

Take `CC(C)(Nc1nc(-c2c[nH]c3ncncc23)ncc1F)C(=O)NCC(F)(F)F` [Compound 56, 2-(5-fluoro-2-(7H-pyrrolo[2,3-d]pyrimidin-5-yl)pyrimidin-4-ylamino)-N-(2,2,2-trifluoroethyl)-2-methylpropanamide]: the inhibition constant Ki at JAK2 and at JAK3 was less than 500 nM throughout.
Regarding `O=C(NCC(F)(F)F)C1(Nc2nc(-c3c[nH]c4ncncc34)ncc2F)CC1` [Compound 57], the Ki at JAK2 and on JAK3 was less than 500 nM each time.
For the molecule `C[C@@H](Nc1nc(-c2c[nH]c3ncncc23)ncc1F)c1ccc(F)cc1` [Compound 58], the Ki at JAK2 and at JAK3 was less than 500 nM in each case.
As for `C[C@H](Nc1nc(-c2c[nH]c3ncncc23)ncc1F)c1ccc(F)cc1` [Compound 59], the Ki on JAK2 and at JAK3 was less than 500 nM in each case.
`O=C(NCC(F)(F)F)C1COCCN1c1cnc(-c2c[nH]c3ncncc23)nc1` (centres unmarked) [Compound 60]: the Ki at JAK2 is 500 to 5000 nM; on JAK3, less than 500 nM.
As for `O=C(NCC(F)(F)F)[C@@H]1CCCCN1c1ccnc(-c2c[nH]c3ncncc23)n1` [Compound 61], the Ki on JAK2 was 500 to 5000 nM; on JAK3, less than 500 nM.
Regarding `O=C(NCC(F)(F)F)C1(Nc2nc(-c3c[nH]c4ncncc34)ncc2F)CCCCC1` [Compound 62], the Ki at JAK2 and at JAK3 was less than 500 nM throughout.
Regarding `CC(C)(Nc1ccnc(-c2c[nH]c3ncncc23)n1)C(=O)NCC(F)(F)F` [Compound 63], the Ki at JAK2 and on JAK3 was less than 500 nM in each case.
Regarding `O=C(NCC(F)(F)F)C1(Nc2ccnc(-c3c[nH]c4ncncc34)n2)CCC1` [Compound 64], the Ki on JAK2 and on JAK3 was less than 500 nM each time.
`CC(C)[C@@](C)(Nc1nc(-c2c[nH]c3ncncc23)ncc1F)C(=O)NCC(F)(F)F` [Compound 65]: the inhibitory constant (Ki) at JAK2 and on JAK3 was less than 500 nM each time.
As for `CC(C)C(C(=O)NCC(F)(F)F)N(C)c1nc(-c2c[nH]c3ncncc23)ncc1F` (centres unmarked) [Compound 66], the Ki at JAK2 and on JAK3 was less than 500 nM each time.
Consider `O=C(NCC(F)(F)F)C(Nc1nc(-c2c[nH]c3ncncc23)ncc1F)c1cccnc1` (centres unmarked) [Compound 67], for which the Ki at JAK2 and on JAK3 was 500 to 5000 nM in each case.
Turning to `CC(C)[C@@H](Nc1ccnc(-c2c[nH]c3ncncc23)n1)C(=O)NCC(F)(F)F` [Compound 68], the Ki at JAK2 and on JAK3 was less than 500 nM each time.
With `CC[C@@H](Nc1ccnc(-c2c[nH]c3ncncc23)n1)C(=O)NCC(F)(F)F` [Compound 69], the inhibition constant Ki on JAK2 and on JAK3 was less than 500 nM in each case.
As to `O=C(CNc1nc(-c2c[nH]c3ncncc23)ncc1F)NCC(F)(F)F` [Compound 70], the figures for the Ki on JAK2 and at JAK3 were 500 to 5000 nM and less than 500 nM, respectively.
In the same order, the values of `O=C(CCNc1nc(-c2c[nH]c3ncncc23)ncc1F)NCC(F)(F)F` [Compound 71] are less than 500 nM and less than 500 nM.
The like results for `O=C(NCC(F)(F)F)[C@H]1CCCN1c1ccnc(-c2c[nH]c3ncncc23)n1` [Compound 72] were, in that order, less than 500 nM and less than 500 nM.
`CC(C)[C@H](C(=O)NCC(F)(F)F)N(C)c1ccnc(-c2c[nH]c3ncncc23)n1` [Compound 73]: the Ki at JAK2 and at JAK3 was less than 500 nM in each case.
As for `CC(C)[C@H](C(=O)NCC(F)(F)F)N(C)c1nc(-c2c[nH]c3ncncc23)ncc1F` [Compound 74], the inhibition constant Ki at JAK2 and on JAK3 was less than 500 nM throughout.
In the case of `CC(C)[C@](C)(Nc1nc(-c2c[nH]c3ncncc23)ncc1F)C(=O)NCC(F)(F)F` [Compound 75], the Ki on JAK2 is 500 to 5000 nM; on JAK3, less than 500 nM.
Consider `O=C(CNc1ccnc(-c2c[nH]c3ncncc23)n1)NCC(F)(F)F` [Compound 76], for which the Ki on JAK2 and on JAK3 was less than 500 nM throughout.
As to `CC[C@](C)(Nc1nc(-c2c[nH]c3ncncc23)ncc1F)C(=O)NCC(F)(F)F` [Compound 77], the figures for the inhibition constant (Ki) on JAK2 and on JAK3 were 500 to 5000 nM and less than 500 nM, respectively.
